Results on three substances are retold here after patent US20240052316A1, “STEM CELL PRIMING COMPOSITION AND PRIMED STEM CELL” (SCM LIFESCIENCE CO., LTD., priority 2020, published 2024).

This test relates to IDO and TSG6. The test is described as follows: qRT-PCR of IDO and TSG6 expression in primed mesenchymal stem cells (joint statements). Format: cell-based. Conditions: 24 hours; for expression of IDO and TSG6 compared to untreated control group 0: Table 1 groups, FIG. 4; for lowest effective concentration capable of inducing significantly increased expression of both TSG6 and IDO: tested 5, 10, 20 ng/ml (TNF-α, IFN-γ) and 10, 20, 40 ng/ml (IFN-α), FIGS. 1-3. As to the method: In a 37° C. and 5% CO2 incubator, mesenchymal stem cells in a storage state (LN2 tank storage) were thawed and cultured, and at this time, the cells were cultured in a medium (DMEM, alpha-MEM) containing 10% FBS or 4% hPL until proliferated to a cell confluence of about 80%. The cultured mesenchymal stem cells were seeded in a 100 mm dish, and treated with candidate substances for reinforcing the functions of the mesenchymal stem cells for 24 hours, and then the concentrations of primary candidate substances for reinforcing the functions were set.
TNF-α and IFN-γIFN-α were selected as the primary candidate substances, and in order to confirm the lowest effective concentration capable of increasing the expression of TNFα-stimulated gene-6 (TSG6) and indoleamine 2,3-dioxygenase (IDO) to confirm the reinforced functions, the stem cells were treated with 5, 10, and 20 ng/ml of TNF-α, 5, 10, and 20 ng/ml of IFN-γ, and 10, 20, and 40 ng/ml of IFN-α, respectively, and changes in expression of TSG6 and IDO were confirmed.
The IDO was known as an immunomodulatory factor that inhibited the proliferation of immune cells such as T cells by converting tryptophan, which was essential for T cell proliferation, into kynurenine, and the TSG6 was known as an anti-inflammatory regulator secreted by mesenchymal stem cells. After culturing the stem cells, total RNA was isolated using TRIzol (Invitrogen), and then cDNA was synthesized from total RNA using PrimeScriptTMRT reagent Kit with gDNA Eraser (TaKaRa), and qRT-PCR was performed. The results of TSG6 and IDO according to the concentration of each candidate substance were illustrated in FIGS. 1, 2 and 3.
Through Example 1, candidate substances and concentration combinations thereof selected to search for more functionally reinforced compositions based on the candidate substances and the lowest effective concentrations confirmed to induce the reinforced functions of stem cells were set as shown in Table 1. Mesenchymal stem cells were treated with the candidate combinations described in Table 1 below for 24 hours, and the stem cells were cultured as in Example 1, and then total RNA was isolated using TRIzol (Invitrogen). Then, qRT-PCR was performed by synthesizing cDNA from total RNA using the PrimeScript™ RT reagent Kit with gDNA Eraser (TaKaRa).
Vitamins were known to improve the proliferative ability of stem cells and maintain the stemness of stem cells when added during a stem cell culture process. Accordingly, various vitamins were treated in the stem cell culture process, and experiments were performed to confirm whether or not vitamins could achieve anti-inflammatory and immune function reinforcing effects of stem cells. Specifically, the stem cells were treated with various types of vitamins shown in Table 2 according to the method described in Example 1, and the results of confirming changes in expression of IDO and TSG6 according to treatment with each candidate substance were illustrated in FIG. 5.

As for TNF-α, the “expression of IDO and TSG6 compared to untreated control group 0” value was “increased expression of IDO and TSG6”; the “lowest effective concentration capable of inducing significantly increased expression of both TSG6 and IDO” value was 10 ng/mL.
With IFN-α, the “expression of IDO and TSG6 compared to untreated control group 0” value was “increased expression of IDO and TSG6”; the “lowest effective concentration capable of inducing significantly increased expression of both TSG6 and IDO” value stood at 20 ng/mL.
Turning to “IFN-γ: cytokine, primary candidate substance for priming stem cells, 10 ng/ml”, the “expression of IDO and TSG6 compared to untreated control group 0” value is “increased expression of IDO and TSG6”; the “lowest effective concentration capable of inducing significantly increased expression of both TSG6 and IDO” value came to 10 ng/mL.
